From patent US10174037B2, “Dihydropyrazolopyrimidinone compounds as PDE2 inhibitors” (Merck Sharp & Dohme Corp., priority 2015, dated 2019)

Target: Rhesus PDE2A3 (Macaca mulatta, UniProt B3VTJ2)
Assay: PDE2 fluorescence polarization (IMAP FP) assay, rhesus PDE2A3
Type: biochemical, rhesus macaque
Settings: Lab A, read-out: Rhesus PDE2 Ki (nM) Lab A
Experimental: A Labcyte Echo 555 (Labcyte, Sunnyvale, Calif.) is used to dispense 200 nL from each well of the titration plate to the 384 well assay plate. Ten microliters of a solution of enzyme (1/2000 final dilution from aliquots; sufficient to produce 20% substrate conversion) was added to the assay plate. Next 10 uL of a separate solution of the substrate FAM-labeled cAMP (50 nM final concentration product # R7506 from Molecular Devices) and the activator cGMP (1 uM final concentration), prepared in the assay buffer (10 mM Tris HCl, pH 7.2, 10 mM MgCl2, 0.05% NaN3 0.01% Tween-20, and 1 mM DTT) was added to the assay plate and shaken to mix. The reaction is allowed to proceed at room temperature for 60 minutes. A binding solution is then made from the kit components, comprised of 80% Solution A, 20% Solution B and binding reagent at a volume of 1/600 the total binding solution. The enzymatic reaction is stopped by addition of 60 μL of the binding solution to each well of the assay plates and the plates are sealed and shaken for 30 seconds. The plate was incubated at room temperature for at least one hour prior to determining the fluorescence polarization (FP). The parallel and perpendicular fluorescence of each well of the plate was measured using a Tecan Genios Pro plate reader (Tecan, Switzerland) or Perkin Elmer EnVision™ plate reader (Waltham, Mass.). Fluorescence polarization (mP) was calculated from the parallel (S) and perpendicular (P) fluorescence of each sample well and the analogous values for the median control well, containing only substrate (So and Po), using the following equation: Polarization (mP)=1000*(S/So−P/Po)/(S/So+P/Po).
Dose-inhibition profiles for each compound were characterized by fitting the mP data to a four-parameter equation given below.
An apparent (KM) for FAM-labeled cAMP of ˜10 uM was used.

Rhesus PDE2A3, sequence (B3VTJ2 1-941): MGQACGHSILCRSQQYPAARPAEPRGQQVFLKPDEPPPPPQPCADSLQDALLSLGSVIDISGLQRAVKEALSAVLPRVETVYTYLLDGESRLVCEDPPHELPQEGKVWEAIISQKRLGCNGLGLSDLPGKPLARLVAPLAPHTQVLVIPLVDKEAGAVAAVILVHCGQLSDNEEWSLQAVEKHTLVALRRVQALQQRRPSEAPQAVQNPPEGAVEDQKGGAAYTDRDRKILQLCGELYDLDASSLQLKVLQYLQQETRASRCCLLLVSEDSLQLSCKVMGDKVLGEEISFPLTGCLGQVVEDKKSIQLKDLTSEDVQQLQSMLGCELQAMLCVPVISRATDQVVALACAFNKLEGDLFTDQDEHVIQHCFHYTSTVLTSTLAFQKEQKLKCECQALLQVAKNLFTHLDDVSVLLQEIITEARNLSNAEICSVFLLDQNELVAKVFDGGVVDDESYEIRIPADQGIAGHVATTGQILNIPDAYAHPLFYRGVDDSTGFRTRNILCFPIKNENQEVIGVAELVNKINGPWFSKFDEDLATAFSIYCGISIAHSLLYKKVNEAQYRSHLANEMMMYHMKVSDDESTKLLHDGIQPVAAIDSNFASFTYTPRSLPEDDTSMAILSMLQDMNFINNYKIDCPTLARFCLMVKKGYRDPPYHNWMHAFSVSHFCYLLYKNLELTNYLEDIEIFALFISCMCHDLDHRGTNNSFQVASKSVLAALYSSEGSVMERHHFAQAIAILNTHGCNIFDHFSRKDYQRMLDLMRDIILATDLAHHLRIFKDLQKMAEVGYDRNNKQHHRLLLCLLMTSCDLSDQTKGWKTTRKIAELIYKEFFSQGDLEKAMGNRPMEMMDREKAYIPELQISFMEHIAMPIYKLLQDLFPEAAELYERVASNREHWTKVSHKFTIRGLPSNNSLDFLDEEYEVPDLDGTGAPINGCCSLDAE

Row | Compound | Ki
1 | CC(c1ccc(OC(F)(F)F)c(F)c1)n1nc(CO)c2c(=O)[nH]c(O)nc21 (single isomer, unassigned) [Example 10] | 145 nM
2 | CC(c1ccc(OC(F)(F)F)c(F)c1)n1nc(CO)c2c(=O)[nH]c(O)nc21 (single isomer, unassigned) [Example 11] | 14 nM
3 | CC(c1ccc(C(F)(F)F)cc1)n1nc(CO)c2c(=O)[nH]c(O)nc21 (single isomer, unassigned) [Example 18, (R)- or (S)-6-Hydroxy-3-(hydroxymethyl)-1-{1-[4-(trinuoromethyl)phenyl]ethyl}-1,5-dihydro-4H-pyrazolo[3,4-d]pyrimidin-4-one] | > 1000 nM
4 | CC(c1ccc(S(F)(F)(F)(F)F)cc1)n1nc(CO)c2c(=O)[nH]c(O)nc21 (single isomer, unassigned) [Example 20, (R)- or (S)-6-Hydroxy-3-(hydroxymethyl)-1-{1-[4-(pentafluorosulfanyl)phenyl]ethyl}-1,5-dihydro-4H-pyrazolo[3,4-d]pyrimidin-4-one] | ~684 nM

Same assay, conditions: Lab B, read-out: Rhesus PDE2 Ki (nM) Lab B

Row | Compound | Ki
5 | C[C@H](c1ccc(C(F)(F)F)c(F)c1)n1nc(CF)c2c(=O)[nH]c(O)nc21 (mixture of isomers) [Example 35, (R)- and (S)-1-(1-(3-Fluoro-4-(trifluoromethyl)phenyl)ethyl)-3-(fluoromethyl)-6-hydroxy-H-pyrazolo[3,4-d]pyrimidin-4(5H)-one] | 209 nM
6 | CC(c1ccc(C(F)(F)F)c(F)c1)n1nc(CO)c2c(=O)[nH]c(O)nc21 (single isomer, unassigned) [Example 2] | 364 nM
7 | CC(c1ccc(OC(F)(F)F)c(F)c1)n1nc(CO)c2c(=O)[nH]c(O)nc21 (single isomer, unassigned) [Example 10] | 249 nM
8 | CC(c1ccc(OC(F)(F)F)c(F)c1)n1nc(CO)c2c(=O)[nH]c(O)nc21 (single isomer, unassigned) [Example 11] | 34 nM
9 | CC(C)C(c1ccc(C(F)(F)F)cc1)n1nc(CO)c2c(=O)[nH]c(O)nc21 (single isomer, unassigned) [Example 12] | 192 nM
10 | O=c1[nH]c(O)nc2c1c(CO)nn2C(c1ccc(C(F)(F)F)cc1)C1CC1 (single isomer, unassigned) [Example 14] | 410 nM
11 | O=c1[nH]c(O)nc2c1c(CO)nn2C(c1ccc(C(F)(F)F)cc1)C1CC1 (single isomer, unassigned) [Example 15, (S) or (R)-1-(Cyclopropyl(4-(trifluoromethyl)phenyl)methyl)-6-hydroxy-3-(hydroxymethyl)-1H-pyrazolo[3,4-d]pyrimidin-4(5H)-one] | 17 nM
12 | O=c1[nH]c(O)nc2c1c(CO)nn2C(CC(F)(F)F)c1ccc(C(F)(F)F)cc1 (single isomer, unassigned) [Example 22] | 253 nM
13 | O=c1[nH]c(O)nc2c1c(CO)nn2C(CC(F)(F)F)c1ccc(C(F)(F)F)cc1 (single isomer, unassigned) [Example 23] | ~2700 nM
14 | CC(C)(C)C(c1ccc(C(F)(F)F)c(F)c1)n1nc(CO)c2c(=O)[nH]c(O)nc21 (single isomer, unassigned) [Example 24] | ~2270 nM
15 | CC(C)(C)C(c1ccc(C(F)(F)F)c(F)c1)n1nc(CO)c2c(=O)[nH]c(O)nc21 (single isomer, unassigned) [Example 25] | 238 nM
16 | CC(C)C(c1ccc(C(F)(F)F)c(F)c1)n1nc(CO)c2c(=O)[nH]c(O)nc21 (single isomer, unassigned) [Example 28, (S)- or (R)-1-(1-(3-F1uoro-4-(trifluoromethyl)phenyl)-2-methylpropyl)-6-hydroxy-3-(hydroxymethyl)-1H-pyrazolo[3,4-d]pyrimidin-4(5H)-one] | 117 nM
17 | CC(C)(C)C(c1ccc(C(F)(F)F)cc1)n1nc(CO)c2c(=O)[nH]c(O)nc21 (single isomer, unassigned) [Example 29, (R)- or (S)-1-(2,2-Dimethyl-1-(4-(trifluoromethyl)phenyl)propyl)-6-hydroxy-3-(hydroxymethyl)-1H-pyrazolo[3,4-d]pyrimidin-4(5H)-one] | 220 nM
18 | CC(C)(C)C(c1ccc(C(F)(F)F)cc1)n1nc(CO)c2c(=O)[nH]c(O)nc21 (single isomer, unassigned) [Example 30, (S)- or (R)-1-(2,2-Dimethyl-1-(4-(trifluoromethyl)phenyl)propyl)-6-hydroxy-3-(hydroxymethyl)-1H-pyrazolo[3,4-d]pyrimidin-4(5H)-one] | 2040 nM
19 | CC(C)(C)C(c1ccc(C(F)(F)F)cc1)n1nc(CF)c2c(=O)[nH]c(O)nc21 (single isomer, unassigned) [Example 51] | 123 nM
20 | CC(C)(C)C(c1ccc(C(F)(F)F)cc1)n1nc(CF)c2c(=O)[nH]c(O)nc21 (single isomer, unassigned) [Example 52] | 910 nM
21 | CCC(c1ccc(CC(F)(F)F)c(F)c1)n1nc(CO)c2c(=O)[nH]c(N(C)C)nc21 (single isomer, unassigned) [Example 96, (R)- or (S)-6-(Dimethylamino)-1-(1-(3-fluoro-4-(2,2,2-trifluoroethyl)phenyl)propyl)-3-(hydroxymethyl)-1H-pyrazolo[3,4-d]pyrimidin-4(5H)-one] | 0.5 nM
22 | CCC(c1ccc(C(F)F)c(F)c1)n1nc(CO)c2c(=O)[nH]c(N(C)C)nc21 (single isomer, unassigned) [Example 147] | 0.54 nM
23 | CC(C)C(c1ccc(C(F)(F)F)c(F)c1)n1nc(CF)c2c(=O)[nH]c(N(C)C)nc21 (single isomer, unassigned) [Example 220, (R)- or (S)-6-(Dimethylamino)-1-(1-(3-fluoro-4-(trifluoromethyl)phenyl)-2-methylpropyl)-3-(fluoromethyl)-1H-pyrazolo[3,4-d]pyrimidin-4(5H)-one] | 0.5 nM
24 | O=c1[nH]c(O)nc2c1c(CC(F)(F)F)nn2C(c1ccc(C(F)(F)F)cc1)C1CC1 (single isomer, unassigned) [Example 227] | 12 nM
25 | O=c1[nH]c(O)nc2c1c(CC(F)(F)F)nn2C(c1ccc(C(F)(F)F)cc1)C1CC1 (single isomer, unassigned) [Example 228] | 210 nM

Target: human PDE2A1 (Homo sapiens (Human), UniProt O00408)
Sequence (O00408 other isoform, or with tags, fused parts or gaps): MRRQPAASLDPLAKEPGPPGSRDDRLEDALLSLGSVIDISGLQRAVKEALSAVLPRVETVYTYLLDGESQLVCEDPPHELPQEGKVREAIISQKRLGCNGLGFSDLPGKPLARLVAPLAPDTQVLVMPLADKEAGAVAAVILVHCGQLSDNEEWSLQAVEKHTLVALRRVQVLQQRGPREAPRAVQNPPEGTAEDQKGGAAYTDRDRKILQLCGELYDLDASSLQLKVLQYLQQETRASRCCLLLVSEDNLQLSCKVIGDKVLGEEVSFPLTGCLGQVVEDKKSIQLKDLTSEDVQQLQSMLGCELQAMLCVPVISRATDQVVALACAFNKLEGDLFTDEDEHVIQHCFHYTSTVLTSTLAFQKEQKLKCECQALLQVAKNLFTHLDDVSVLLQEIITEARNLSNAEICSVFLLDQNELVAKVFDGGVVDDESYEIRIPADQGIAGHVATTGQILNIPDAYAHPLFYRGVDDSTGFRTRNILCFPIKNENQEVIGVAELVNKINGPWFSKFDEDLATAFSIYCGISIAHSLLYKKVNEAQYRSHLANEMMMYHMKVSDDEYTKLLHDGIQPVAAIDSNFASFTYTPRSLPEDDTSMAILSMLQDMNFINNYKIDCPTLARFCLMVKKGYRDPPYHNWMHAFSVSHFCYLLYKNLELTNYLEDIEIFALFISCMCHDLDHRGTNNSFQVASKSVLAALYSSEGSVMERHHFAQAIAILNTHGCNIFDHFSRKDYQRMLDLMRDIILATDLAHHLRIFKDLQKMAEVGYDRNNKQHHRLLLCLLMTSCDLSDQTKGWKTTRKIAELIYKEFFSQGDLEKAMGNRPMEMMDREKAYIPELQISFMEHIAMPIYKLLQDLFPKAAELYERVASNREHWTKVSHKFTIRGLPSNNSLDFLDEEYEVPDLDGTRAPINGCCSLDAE
Assay: PDE selectivity IMAP FP assay, human PDE2A1
Type: biochemical
Settings: Human PDE2; Lab B; read-out: Human PDE2 Ki (nM) Lab B
Procedure, shortened: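 IMAP fluorescence polarization assay; PDE2 substrate 50 nM FAM-cAMP containing 1000 nM cGMP, enzyme diluted for 20% substrate conversion, in 10 mM Tris HCl pH 7.2, 10 mM MgCl2, 1 mM DTT. Reaction 60 min at room temperature, stopped with IMAP binding solution; polarization read after 1 h. Ki reported.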

Row | Compound | Ki
26 | C[C@@H](c1ccc(C(F)(F)F)cc1)n1nc(CO)c2c(=O)[nH]c(N3CC(F)(F)C3)nc21 [Example 159, 6-(3,3-Difluoroazetidin-1-yl)-3-(hydroxymethyl)-1-{(1S)-1-[4-(trifluoromethyl)phenyl]ethyl}-1,5-dihydro-4H-pyrazolo[3,4-d]pyrimidin-4-one] | 2.3 nM
27 | CC1CN(c2nc3c(c(CO)nn3[C@@H](C)c3ccc(C(F)(F)F)cc3)c(=O)[nH]2)C1 [Example 160, 3-(Hydroxymethyl)-6-(3-methylazetidin-1-yl)-1-{(1S)-1-[4-(trifluoromethyl)phenyl]ethyl}-1,5-dihydro-4H-pyrazolo[3,4-d]pyrimidin-4-one] | 1.6 nM
28 | C[C@@H](c1ccc(C(F)(F)F)cc1)n1nc(C(F)F)c2c(=O)[nH]c(N(C)C)nc21 [Example 289, (S)-3-(Difluoromethyl)-6-(dimethylamino)-1-(1-(4-(trifluoromethyl)phenyl)ethyl)-1H-pyrazolo[3,4-d]pyrimidin-4(5H)-one] | 0.25 nM
29 | CSc1nc2c(c(CO)nn2[C@@H](C)c2ccc(C(F)(F)F)cc2)c(=O)[nH]1 [Example 301, (S)-3-(Hydroxymethyl)-6-(methylthio)-1-(1-(4-(trifluoromethyl)phenyl)ethyl)-1H-pyrazolo[3,4-d]pyrimidin-4(5H)-one] | 1.8 nM
30 | C[C@@H](c1ccc(C(F)(F)F)cc1)n1nc(C(F)(F)F)c2c(=O)[nH]c(N(C)C)nc21 [Example 339, (S)-6-(Dimethylamino)-3-(trifluoromethyl)-1-(1-(4-(trifluoromethyl)phenyl)ethyl)-1H-pyrazolo[3,4-d]pyrimidin-4(5H)-one] | 2.1 nM
31 | O=c1[nH]c(O)nc2c1c(C(F)(F)F)nn2C1(c2ccc(C(F)(F)F)cc2)CC1 [Example 354, 6-Hydroxy-3-(trifluoromethyl)-1-(1-(4-(trifluoromethyl)phenyl)cyclopropyl)-1H-pyrazolo[3,4-d]pyrimidin-4(5H)-one] | 2.4 nM
32 | C=CC(c1ccc(C(F)(F)F)cc1)n1nc(C(F)(F)F)c2c(=O)[nH]c(O)nc21 (stereo not shown) [Example 355, 6-Hydroxy-3-(trifluoromethyl)-1-(1-(4-(trifluoromethyl)phenyl)allyl)-1H-pyrazolo[3,4-d]pyrimidin-4(5H)-one] | 284 nM
33 | C[C@@H](c1ccc(C(F)(F)F)cc1)n1nc(C(F)F)c2c(=O)[nH]c(N3CCC3)nc21 [compound 290, 6-Azetidin-1-yl-3-(difluoromethyl)-1-{(1S)-1-[4-(trifluoromethyl)phenyl]ethyl}-1,5-dihydro-4H-pyrazolo[3,4-d]pyrimidin-4-one] | 0.26 nM
34 | CCOc1nc2c(c(CO)nn2[C@@H](C)c2ccc(C(F)(F)F)cc2)c(=O)[nH]1 [compound 302, 6-Ethoxy-3-(hydroxymethyl)-1-{(1S)-1-[4-(trifluoromethyl)phenyl]ethyl}-1,5-dihydro-4H-pyrazolo[3,4-d]pyrimidin-4-one] | 3.7 nM
